The text below walks through data of US4555572A, “Pyrazolo[3,4,5-kl]acridine compositions and methods for their production and use” (Warner-Lambert Company, priority 1984, dated 1985).

The subject of one test is Alcaligenes viscolactis. Description: in vitro antibacterial (ABMF) microdilution susceptibility test. It is filed as cell-based. The settings on record: read-out: ABMF Test M.I.C. A. visc. The source says:
(§1) (d) Still another test protocol is the in vitro antibacterial (ABMF) test which is a recognized standard microdilution susceptibility procedure in Mueller-Hinton broth against gram-positive and gram-negative bacterial test organisms. The procedure is a modification of a state-of-the-art procedure reported in Manual of Clinical Microbiology, Lennette, E. H., ed., by Barry, A. L. and C. Thornsberry at pages 463-474 and by Gavan, T. L. and A. L. Barry at pages 459-462, American Society for Microbiology, Washington, 1980.
(§2) In the test, a given bacterial culture is used to inoculate individaul test wells of microdilution trays containing growth medium and test compound, the latter in a microdilution series: 1000, 333, 111, 37, 12, 4, 1.4, and 0.46 micrograms per milliliter. […] For convenience, values are reported for Escherichia coli, Branhamella catarrhalis, Alcaligenes viscolactis, Streptococcus pneumoniae, and Bacillus cereus
On the technique in general: Dilution methods test growth across graded concentrations, often in twofold steps.

Another test concerns Escherichia coli. The test is described as above. The format is cell-based. The note with it: read-out: ABMF Test M.I.C. E. coli.
From the text: as §1, §2

A further test concerns Bacillus cereus. The test is described as above. The note with it: read-out: ABMF Test M.I.C. B. cere. The format is cell-based.
From the text: as §1, §2

The next test has as its system Branhamella catarrhalis. The description is as above. It is filed as cell-based. The note with it: Moraxella catarrhalis, read-out: ABMF Test M.I.C. B. cata.
From the text: as §1, §2

In a further test the test system is Streptococcus pneumoniae. The description is as above. The format is cell-based. The settings on record: read-out: ABMF Test M.I.C. S. pneu.
From the text: as §1, §2

The next test has as its system L1210 cells. Nature of the test: PDC test, L1210 cell growth. The format is cell-based, murine. The note with it: Mus musculus, read-out: PDC ID50. Here is the method: (c) Another test protocol is the PDC test. L1210 cells, a murine leukemia cell line, were grown in RPMI 1640 supplemented with 10% fetal bovine serum and genamicin (50 μg/ml). Drug dilutions were prepared in the appropriate solvent and 20 μl of each dilution were added to 24-well Linbro tissue culture plates followed by the addition of 2.0 ml of cell suspension containing 3×10^4 cells per ml. Solvent and medium controls were included in each test. After incubation at 37° C. for three days in 5% CO2 in air, the contents of each well were removed and the cells counted in a ZBI Coulter counter. Per cent growth was calculated relative to the controls and the levels of drug activity were expressed as ID50 in terms of molarity (M).

For test [1], the system named is lymphocytic leukemia P388. Description: in vivo lymphocytic leukemia P388 test. Further details: species or system CD2 F1 mice. The note with it: Mus musculus, P388, ip, 120 h, intraperitoneally once daily for five days, read-out: P388 in vivo T/C × 100. Here is the method:
Another test protocol is the in vivo lymphocytic leukemia P388 test. The animals used are either male or female CD2 F1 mice, six or seven animals per test group. The tumor transplant is by intraperitoneal injection of dilute ascitic fluid containing cells of lymphocytic leukemia P388. The test compounds are administered intraperitoneally once daily for five consecutive days at various doses following tumor inoculation. The animals are weighed and survivors are recorded on a regular basis for 30 days. A compound is designated "toxic" if, at a given dose, all animals died prior to four days after the first injection of drug. A ratio of survival time for treated (T)/control (C) animals is calculated. A criterion for efficacy is a ratio T/C times 100 greater than or equal to 125. See Cancer Chemotherapy Reports, Part 3, 3, 1 (1972) for a comprehensive discussion of the protocol.

A further test concerns HCT-8 cells. Nature of the test: in vitro proliferating human colon adenocarcinoma (HCA) cell screen, HCT-8. The format is cell-based. The settings on record: HCT-8 cells, 60 to 65 hours, ED50, read-out: HCA ED50 Avg. Here is the method:
(a) One test protocol is the in vitro proliferating human colon adenocarcinoma (HCA) cell screen. In this test, HCT-8 cells (HCA cell line received from Yale University) are trypsinized using trypsin-EDTA. A single cell suspension is achieved by passing the cells through a 26 gauge needle with a 20-cc syringe. A cell suspension is prepared using RPMI 1640+10% FCS+50 μg/ml gentamicin sulfate with a cell concentration is approximately 30,000 cells/ml. The cell suspension is dispensed in Linbro 24-well plates; 1 ml/well. The plates are incubated for approximately 48 hours at 37° C. in a 5% CO2 atmosphere. At this time test compounds are added in the appropriate concentration. Five μl of the 200 μg/ml stock solution is added to each well in a primary test. […] of the appropriate dilution is added to each well for a titration test. The plates are reincubated an additional 60 to 65 hours at 37° C. in a 5% CO 2 atmosphere. The cells are lysed using a mix of cationic surfactant, glacial acetic acid, and sodium chloride. Two ml of the lysed cell suspension from each well is added to 8 ml of diluent. The number of nuclei is determined using a Coulter counter (ZBI model), and a percent growth for each drug concentration is calculated. From this, and ID50 (molar concentration of compound that results in 50% inhibition of growth) is determined.

[2] abbreviates: Mueller-Hinton broth, 37° C., 16-24 hours.

Each structure is given as a SMILES string. Structures can show the parent of a compound that is named as a salt. Where two headings read alike, the source gives them in different places.

`CCCCCCCC(=O)Oc1ccc2c(c1)-c1nn(CCN(CC)CC)c3ccc([N+](=O)[O-])c(c13)N2` [Example 30, Octanoic acid,[2-[2-(diethylamino)ethyl]-2,6-dihydro-5-nitropyrazolo[3,4,5-kl]acridin-9-yl]ester, methanesulfonate (1:1), hemihydrate]: the MIC with Alcaligenes viscolactis (setting [2]) was below 0.46 µg/mL; in the test with Escherichia coli (setting [2]), 37 µg/mL; in the test with Bacillus cereus (setting [2]) it was 37 µg/mL; in the test with Branhamella catarrhalis (setting [2]), 12.3 µg/mL; in the test on Streptococcus pneumoniae (setting [2]), below 0.46 µg/mL. Besides, in the test with L1210 cells (72 h, L1210 cells, three days), the IC50 turned out to be 0.0043 µM.

Take `CCN(CC)CCn1nc2c3c(c([N+](=O)[O-])cc([N+](=O)[O-])c31)Nc1ccc(OCc3ccc(OC)cc3)cc1-2.CS(=O)(=O)O` [Example 53, N,N-Diethyl-9-[(4-methoxyphenyl)methoxy]-3,5-dinitropyrazolo[3,4,5-kl]acridine-2(6H)-ethanamine, methanesulfonate (1:1)]: the MIC in the test with Alcaligenes viscolactis, in the test with Escherichia coli, in the test on Bacillus cereus, with Branhamella catarrhalis and in the test on Streptococcus pneumoniae was below 0.46 µg/mL each time. The IC50 in the test with L1210 cells (L1210, 72 h) was 0.0068 µM.

`CCN(CC)CCn1nc2c3c(c([N+](=O)[O-])cc([N+](=O)[O-])c31)Nc1ccc(OCc3ccccc3)cc1-2` [Example 52, N,N-Diethyl-3,5-dinitro-9-(phenylmethoxy)pyrazolo [3,4,5-kl]-2(6H)-ethanamine, methanesulfonate, hemihydrate]: the IC50 in the test with L1210 cells (L1210, 72 h) was 0.75 µM.

Turning to `CCN(CC)CCn1nc2c3c(c([N+](=O)[O-])ccc31)Nc1ccc(OC(=O)C(C)(C)C)cc1-2` [Example 28, 2-[2-(Diethylamino)ethyl]-2,6-dihydro-5-nitropyrazolo[3,4,5-kl]acridin-9-ol, 2,2-dimethylpropanoate (ester), methanesulfonate (salt) (1:1)], in test [1], the response vs control in vivo at 3.12 mg/kg came out at 221% and the response vs control in vivo at 6.25 mg/kg amounted to 223%. For the same compound, the IC50 with L1210 cells (72 h, L1210 cells, three days) was 0.0072 µM.

For `COc1cc(OC)c2c(c1)-c1nn(CCN(C)C)c3ccc([N+](=O)[O-])c(c13)N2.CS(=O)(=O)O` [Example 38, 7,9-Dimethoxy-N,N-dimethyl-5-nitropyrazolo[3,4,5-kl]acridine-2(6H)-ethanamine, methanesulfonate (1:1)], in test [1] (100 mg/kg), the response vs control in vivo at 100 mg/kg is 119%. Moreover, the response vs control in vivo at 200 mg/kg in test [1] (200 mg/kg) came out at 128%. For the same compound, the IC50 in the test with HCT-8 cells was 0.064 µM. For the same compound, the MIC in the test with Alcaligenes viscolactis (setting [2]) was below 0.46 µg/mL; with Escherichia coli (setting [2]), 1000 µg/mL; with Bacillus cereus (setting [2]), below 0.46 µg/mL; in the test on Branhamella catarrhalis (setting [2]) it was 1.4 µg/mL; with Streptococcus pneumoniae (setting [2]), below 0.46 µg/mL.

Consider `CCCOc1ccc2c(c1)-c1nn(CCN(CC)CC)c3ccc([N+](=O)[O-])c(c13)N2.CS(=O)(=O)O` [Example 19, N,N-Diethyl-5-nitro-9-propoxypyrazolo[3,4,5-kl]acridine-2(6H)-ethanamine, methanesulfonate salt (1:1)], for which the response vs control in vivo at 3.12 mg/kg in test [1] turned out to be 137%. In test [1], the response vs control in vivo at 6.25 mg/kg came out at 167%. Moreover, the IC50 with HCT-8 cells worked out at 0.31 µM. The MIC in the test on Alcaligenes viscolactis (setting [2]) was below 0.46 µg/mL; in the test on Escherichia coli (setting [2]), 1000 µg/mL; with Bacillus cereus (setting [2]), 12.3 µg/mL; in the test with Branhamella catarrhalis (setting [2]) it was below 0.46 µg/mL; in the test on Streptococcus pneumoniae (setting [2]) it was below 0.46 µg/mL.

For `CN(C)CCCn1nc2c3c(c([N+](=O)[O-])ccc31)Nc1ccc(O)cc1-2` [Example 44, 2-[3-(Dimethylamino)propyl]-2,6-dihydro-5-nitropyrazolo[3,4,5-kl]acridin-9-ol, methanesulfonate], the response vs control in vivo at 0.39 mg/kg in test [1] (0.39 mg/kg) was 162%. Moreover, in test [1] (0.78 mg/kg), the response vs control in vivo at 0.78 mg/kg worked out at 182%. Besides, the response vs control in vivo at 1.56 mg/kg in test [1] stood at 200%. The response vs control in vivo at 3.12 mg/kg in test [1] is 270%. Besides, the IC50 with HCT-8 cells is 0.012 µM. The MIC in the test on Alcaligenes viscolactis (setting [2]) is below 0.46 µg/mL; in the test on Escherichia coli (setting [2]), below 0.46 µg/mL; in the test on Bacillus cereus (setting [2]) it was 0.46 µg/mL; with Branhamella catarrhalis (setting [2]), below 0.46 µg/mL; with Streptococcus pneumoniae (setting [2]), 0.46 µg/mL.

Turning to `CCN(CC)CCn1nc2c3c(c([N+](=O)[O-])ccc31)Nc1ccc(OC(=O)c3ccccc3)cc1-2` [Example 31, 2-[2-(Diethylamino)ethyl]-2,6-dihydro-5-nitropyrazolo [3,4,5-kl]acridin-9-ol, benzoate (ester), methanesulfonate (1:1) (salt), monohydrate], in the test with L1210 cells (72 h, L1210 cells, three days), the IC50 amounted to 0.003 µM.

In the case of `CCN(CC)CCn1nc2c3c(c([N+](=O)[O-])ccc31)Nc1c(OC)cccc1-2.CS(=O)(=O)O` [Example 17, N,N-Diethyl-7-methoxy-5-nitropyrazolo[3,4,5-kl]acridine-2(6H)-ethanamine, methanesulfonate (1:1)], the response vs control in vivo at 12.5 mg/kg in test [1] was 106%. Besides, the IC50 with HCT-8 cells was 0.51 µM. The MIC in the test on Alcaligenes viscolactis (setting [2]), in the test on Escherichia coli (setting [2]), in the test with Bacillus cereus (setting [2]), with Branhamella catarrhalis (setting [2]) and in the test with Streptococcus pneumoniae (setting [2]) was below 0.46 µg/mL throughout.

Regarding `CCN(CC)CCn1nc2c3c(c([N+](=O)[O-])ccc31)Nc1ccc(OCc3ccc(OC)cc3)cc1-2` [Example 22, N,N-Diethyl-9-[(4-methoxyphenyl)methoxy]-5-nitropyrazolo[3,4,5-kl]acridine-2(6H)-ethanamine, methanesulfonate (salt) (1:1)], the IC50 with L1210 cells (72 h, L1210 cells, three days) was 0.82 µM.

Take `CCOc1ccc2c(c1)-c1nn(CCCN(C)C)c3ccc([N+](=O)[O-])c(c13)N2.CS(=O)(=O)O` [Example 46, 9-Ethoxy-N,N-dimethyl-5-nitropyrazolo[3,4,5-kl]acridine-2(6H)-propanamine, methanesulfonate (1:1)]: in test [1], the response vs control in vivo at 1.56 mg/kg amounted to 132%. In addition, the response vs control in vivo at 3.12 mg/kg in test [1] amounted to 137%. The response vs control in vivo at 6.25 mg/kg in test [1] came out at 169%. Further, the response vs control in vivo at 12.5 mg/kg in test [1] was 232%. The IC50 in the test on HCT-8 cells amounted to 0.055 µM. For the same compound, the MIC was below 0.46 µg/mL with Alcaligenes viscolactis (setting [2]); 12.3 µg/mL in the test on Escherichia coli (setting [2]); 4.1 µg/mL in the test on Bacillus cereus (setting [2]); 1.4 µg/mL in the test on Branhamella catarrhalis (setting [2]); 4.1 µg/mL in the test with Streptococcus pneumoniae (setting [2]).
